According to patent publication US6949542B2, “Dihydro-benzo[b][1,4]diazepin-2-one derivatives” (Hoffman-La Roche Inc., priority 2002, dated 2005):

Structure (SMILES) | melting point
O=C1CC(c2cccc(-c3ccc(C4CC4)nc3)c2)=Nc2cc(OCC3CC3)c(C(F)(F)F)cc2N1 [Example 196, 7-Cyclopropylmethoxy-4-[3-(6-cyclopropyl-pyridin-3-yl)-phenyl]-8-trifluoromethyl-1,3-dihydro-benzo[b][1,4]diazepin-2-one] | 223 °C
CCOc1ccc2c(c1)N=C(c1cccc(-c3ccncc3)c1)CC(=O)N2 [Example 163, 7-Ethoxy-4-(3-pyridin-4-yl-phenyl)-1,3-dihydro-benzo[b][1,4]diazepin-2-one] | 180 to 185 °C
Cc1ncccc1-c1cccc(C2=Nc3ccc(-c4ccccc4F)cc3NC(=O)C2)c1 [Example 19, 8-(2-Fluoro-phenyl)-4-[3-(2-methyl-pyridin-3-yl)-phenyl]-1,3-dihydro-benzo[b][1,4]diazepin-2-one] | 192 to 194 °C
N#Cc1ccc(-c2cccc(C3=Nc4ccc(C(F)(F)F)cc4NC(=O)C3)c2)cn1 [Example 204, 5-[3-(4-Oxo-7-trifluoromethyl-4,5-dihydro-3H-benzo[b][1,4]diazepin-2-yl)-phenyl]-pyridine-2-carbonitrile] | 234 to 237 °C
O=C1CC(c2cccc(-c3ccnc(C(F)(F)F)c3)c2)=Nc2cc(OCC(F)(F)F)c(C(F)(F)F)cc2N1 [Example 268, 7-(2,2,2-Trifluoro-ethoxy)-8-trifluoromethyl-4-[3-(2-trifluoromethyl-pyridin-4-yl)-phenyl]-1,3-dihydro-benzo[b][1,4]diazepin-2-one] | 220 °C
Cc1cc(-c2cccc(C3=Nc4cc(C)c(Cl)cc4NC(=O)C3)c2)cc(CO)n1 [Example 401, 8-Chloro-4-[3-(2-hydroxymethyl-6-methyl-pyridin-4-yl)-phenyl]-7-methyl-1,3-dihydro-benzo[b][1,4]diazepin-2-one] | 202 °C
Cc1cc(-c2cccc(C3=Nc4cc(N(C)C(C)C)c(C(F)(F)F)cc4NC(=O)C3)c2)cc(C)n1 [Example 412, 4-[3-(2,6-Dimethyl-pyridin-4-yl)-phenyl]-7-(isopropyl-methyl-amino)-8-trifluoromethyl-1,3-dihydro-benzo[b][1,4]diazepin-2-one] | 232 °C
O=C1CC(c2cccc(-c3ncccn3)c2)=Nc2ccc(Cl)cc2N1 [Example 339, 8-Chloro-4-(3-pyrimidin-2-yl-phenyl)-1,3-dihydro-benzo[b][1,4]diazepin-2-one] | 217 to 222 °C
Cc1cc(-c2cc(C3=Nc4cc(C)c(Cl)cc4NC(=O)C3)ccn2)ccn1 [Example 295, 8-Chloro-7-methyl-4-(2′-methyl-[2,4′]bipyridinyl-4-yl)-1,3-dihydro-benzo[b][1,4]diazepin-2-one] | 225 to 227 °C
CCOc1cc2c(cc1Cl)NC(=O)CC(c1cccc(-c3ccnc(C)c3)c1)=N2 [Example 182, 8-Chloro-7-ethoxy-4-[3-(2-methyl-pyridin-4-yl)-phenyl]-1,3-dihydro-benzo[b][1,4]diazepin-2-one] | 185 °C
O=C1CC(c2cccc(-c3ccnc(C4CCCC4)c3)c2)=Nc2cc(OCC(F)(F)F)c(C(F)(F)F)cc2N1 [Example 354, 4-[3-(2-Cyclopentyl-pyridin-4-yl)-phenyl]-7-(2,2,2-trifluoro-ethoxy)-8-trifluoromethyl-1,3-dihydro-benzo[b][1,4]diazepin-2-one] | 147 to 148 °C
COc1ccc(-c2cccc(C3=Nc4ccc(Cl)cc4NC(=O)C3)c2)cn1 [Example 51, 8-Chloro-4-[3-(6-methoxy-pyridin-3-yl)-phenyl]-1,3-dihydro-benzo[b][1,4]diazepin-2-one] | 200 to 205 °C
CCOc1cc2c(cc1C(F)(F)F)NC(=O)CC(c1cccc(-c3ccnc(C4CCCC4)c3)c1)=N2 [Example 353, 4-[3-(2-Cyclopentyl-pyridin-4-yl)-phenyl]-7-ethoxy-8-trifluoromethyl-1,3-dihydro-benzo[b][1,4]diazepin-2-one] | 192 to 193 °C
Cc1nccc(-c2cccc(C3=Nc4ccc(-n5cccc5)cc4NC(=O)C3)c2)n1 [Example 307, 4-[3-(2-Methyl-pyrimidin-4-yl)-phenyl]-8-pyrrol-1-yl-1,3-dihydro-benzo[b][1,4]diazepin-2-one] | 209 to 212 °C
Cc1ccc(-c2cccc(C3=Nc4ccc(F)cc4NC(=O)C3)c2)cn1 [Example 11, 8-Fluoro-4-[3-(6-methyl-pyridin-3-yl)-phenyl]-1,3-dihydro-benzo[b][1,4]diazepin-2-one] | 225 to 226 °C
Cc1cc(-c2cccc(C3=Nc4cc(NCC(C)C)c(Cl)cc4NC(=O)C3)c2)ccn1 [Example 79, 8-Chloro-7-isobutylamino-4-[3-(2-methyl-pyridin-4-yl)-phenyl]-1,3-dihydro-benzo[b][1,4]diazepin-2-one] | 220 °C
CCOc1ccc2c(c1)N=C(c1cccc(-c3ccnc(C)c3)c1)CC(=O)N2 [Example 59, 7-Ethoxy-4-[3-(2-methyl-pyridin-4-yl)-phenyl]-1,3-dihydro-benzo[b][1,4]diazepin-2-one] | 163 °C
O=C1CC(c2cccc(-c3cccnc3)c2)=Nc2ccc(F)cc2N1 [Example 7, 8-Fluoro-4-(3-pyridin-3-yl-phenyl)-1,3-dihydro-benzo[b][1,4]diazepin-2-one] | 210 °C
Cc1cc(-c2cccc(C3=Nc4cc(Cl)c(Cl)cc4NC(=O)C3)c2)c(C)cn1 [Example 137, 7,8-Dichloro-4-[3-(2,5-dimethyl-pyridin-4-yl)-phenyl]-1,3-dihydro-benzo[b][1,4]diazepin-2-one] | 208 °C
O=C1CC(c2cccc(-c3ccc(C4CC4)nc3)c2)=Nc2ccc(OC(F)(F)F)cc2N1 [Example 207, 4-[3-(6-Cyclopropyl-pyridin-3-yl)-phenyl]-8-trifluoromethoxy-1,3-dihydro-benzo[b][1,4]diazepin-2-one] | 190 to 191 °C

Continued, values first:

melting point | Structure (SMILES)
229 °C | CCOc1cc2c(cc1C(F)(F)F)NC(=O)CC(c1cccc(-c3ccccn3)c1)=N2 [Example 43, 7-Ethoxy-4-(3-pyridin-2-yl-phenyl)-8-trifluoromethyl-1,3-dihydro-benzo[b][1,4]diazepin-2-one]
205 °C | Cc1cc2c(cc1C(F)(F)F)NC(=O)CC(c1cccc(-c3ccnc(C(C)C)c3)c1)=N2 [Example 271, 4-[3-(2-Isopropyl-pyridin-4-yl)-phenyl]-7-methyl-8-trifluoromethyl-1,3-dihydro benzo[b][1,4]diazepin-2-one]
216 °C | Cc1cc2c(cc1C(F)(F)F)N=C(c1cccc(-c3cnccn3)c1)CC(=O)N2 [Example 93, 8-Methyl-4-(3-pyrazin-2-yl-phenyl)-7-trifluoromethyl-1,3-dihydro-benzo[b][1,4]diazepin-2-one]
235 °C | O=C1CC(c2cccc(-c3cnccn3)c2)=Nc2cc(Cl)c(C(F)(F)F)cc2N1 [Example 91, 7-Chloro-4-(3-pyrazin-2-yl-phenyl)-8-trifluoromethyl-1,3-dihydro-benzo[b][1,4]diazepin-2-one]
221 °C | Cc1cc(-c2cccc(C3=Nc4cc(Cl)c(C(F)(F)F)cc4NC(=O)C3)c2)ccn1 [Example 82, 7-Chloro-4-[3-(2-methyl-pyridin-4-yl)-phenyl]-8-trifluoromethyl-1,3-dihydro benzo[b][1,4]diazepin-2-one]
217 °C | CCOc1cc2c(cc1C(F)(F)F)NC(=O)CC(c1cccc(-c3ccnc(C(C)C)c3)c1)=N2 [Example 276, 4-[3-(2-Isopropyl-pyridin-4-yl)-phenyl]-7-ethoxy-8-trifluoromethyl-1,3-dihydro-benzo[b][1,4]diazepin-2-one]
232 °C | Cc1cc2c(cc1C(F)(F)F)NC(=O)CC(c1cccc(-c3ccnc(C4CC4)c3)c1)=N2 [Example 347, 4-[3-(2-Cyclopropyl-pyridin-4-yl)-phenyl]-7-methyl-8-trifluoromethyl-1,3-dihydro-benzo[b][1,4]diazepin-2-one]
211 °C | CCc1ccc(-c2cccc(C3=Nc4ccc(C(F)(F)F)cc4NC(=O)C3)c2)cn1 [Example 191, 4-[3-(6-Ethyl-pyridin-3-yl)-phenyl]-8-trifluoromethyl-1,3-dihydro-benzo[b][1,4]diazepin-2-one]
214 °C | O=C1CC(c2cccc(-c3ccccn3)c2)=Nc2cc(OCC(F)(F)F)c(C(F)(F)F)cc2N1 [Example 44, 4-(3-Pyridin-2-yl-phenyl)-7-(2,2,2-trifluoro-ethoxy)-8-trifluoromethyl-1,3-dihydro-benzo[b][1,4]diazepin-2-one]
221 to 223 °C | CN(C)c1cc2c(cc1C(F)(F)F)NC(=O)CC(c1cccc(-c3ncccn3)c1)=N2 [Example 337, 7-Dimethylamino-4-(3-pyrimidin-2-yl-phenyl)-8-trifluoromethyl-1,3-dihydro-benzo[b][1,4]diazepin-2-one]
228 to 233 °C | Cc1cc2c(cc1Cl)NC(=O)CC(c1cccc(-c3cc(N)ncn3)c1)=N2 [Example 329, 4-[3-(6-Amino-pyrimidin-4-yl)-phenyl]-8-chloro-7-methyl-1,3-dihydro-benzo[b][1,4]diazepin-2-one]
246 °C | O=C1CC(c2cccc(-c3cccnc3)c2)=Nc2cc(F)c(F)cc2N1 [Example 116, 7,8-Difluoro-4-(3-pyridin-3-yl-phenyl)-1,3-dihydro-benzo[b][1,4]diazepin-2-one]
232 °C | CCc1cc(-c2cccc(C3=Nc4cc(OCC(F)(F)F)c(C(F)(F)F)cc4NC(=O)C3)c2)ccn1 [Example 158, 4-[3-(2-Ethyl-pyridin-4-yl)-phenyl]-7-(2,2,2-trifluoro-ethoxy)-8-trifluoromethyl-1,3-dihydro-benzo[b][1,4]diazepin-2-one]
197 °C | O=C1CC(c2cccc(-c3cccnc3)c2)=Nc2cc(OCC3CC3)c(C(F)(F)F)cc2N1 [Example 194, 7-Cyclopropylmethoxy-4-(3-pyridin-3-yl-phenyl)-8-trifluoromethyl-1,3-dihydro-benzo[b][1,4]diazepin-2-one]
219 to 221 °C | O=C1CC(c2cccc(-c3cccnc3)c2)=Nc2cc(N3CCCC3)c(C(F)(F)F)cc2N1 [Example 187, 4-(3-Pyridin-3-yl-phenyl)-7-pyrrolidin-1-yl-8-trifluoromethyl-1,3-dihydro-benzo[b][1,4]diazepin-2-one]
